Assay results from patent publication US20150225377A1, “VEGFR3 INHIBITORS” (CANCER THERAPEUTICS CRC PTY LIMITED, priority 2012, published 2015).

Key:
[1] = target: T1, VEGFR3 cytoplasmic domain (Homo sapiens, UniProt P35916); test: VEGFR3 biochemical assay (AlphaScreen); settings: GST-VEGFR3 cytoplasmic domain, 500 μM ATP (modified form: His-fusion, 1 μM ATP)
T1 construct: VEGFR3 cytoplasmic domain (amino acids 798-1298) was purchased as N-terminal GST-fusion protein; GST (N); purchased
Description: Compounds of the invention may be tested for in vitro activity in the following assay: A biotin labelled peptide is used as substrate (amino acid sequence: Biotin-[…]NH2). VEGFR3 cytoplasmic domain (amino acids 798-1298) was purchased as N-terminal GST-fusion protein (“the enzyme”). The 15 μL assay reactions are run in Greiner brand white 384-well low volume plates. All reactions contained 10 mM HEPES pH 7.4, 10 mM MgCl2, 0.01% (v/v) Tween-20, 50 μM Na3VO4, 0.01% (w/v) albumin from chicken egg white, 1 mM Dithiothreitol, 111 nM peptide substrate, 500 μM ATP, and 3.8 ng/reaction enzyme, with the enzyme being omitted from negative control reactions. Compounds were added in a volume of […] from dilution series prepared in DMSO, positive and negative control reactions receiving the same volume DMSO without compound. The plates were sealed with adhesive seals and incubated for 90 minutes at 30 degree Celsius. The reactions were stopped with the detection reagents added at the same time as follows: Product formation was quantified as amplified luminescence between PerkinElmer AlphaScreen™ beads, using Streptavidin-coated donor and anti-phosphotyrosine (P-Tyr-100) acceptor beads. To each reaction, 5 μL containing 10 mM HEPES pH 7.4, 25 mM NaCl, 100 mM EDTA, 0.01% (v/v) Tween-20, and 6.25 μg/mL of each bead type were added. Plates were incubated for 6 hours before being read on a PerkinElmer EnVision™ plate reader in HTS Alphascreen™ mode. IC50 values were obtained by calculating percent inhibition (% I) for each reaction relative to controls on the same plate (% I=(I-CN)/(CP-CN) where CN/CP are the averages of the negative/positive reactions, respectively), then fitting the % I data vs. compound concentration [I] to % I=(A+((B−A)/(1+((C/[I])̂D)))) where A is the lower asymptote, B is the upper asymptote, C is the IC50 value, and D is the slope factor.
The above assay was also run in a modified form in some cases (indicated below with *). In these cases, VEGFR3 cytoplasmic domain (amino acids 818-1177, lacking 949-1002 of UniProt accession number P35916) was expressed and purified as N-terminal Hexa-His-fusion protein (“the enzyme”), rather than using the N-terminal GST-fusion protein. The assay conditions were the same as above but with 1 μM ATP and 8 ng/reaction of the enzyme.

VEGFR3 = target: T2, VEGFR3 (Homo sapiens, UniProt P35916); test: VEGFR3 Phospho ELISA assay in HMVEC-dLyAD cells, VEGFC stimulated; format: cell-based; settings: 1 hour compound, 250 ng/mL VEGFC 10 minutes
T2 construct: host or cells: HMVEC-dLyAD
T2 sequence (P35916 25-1363): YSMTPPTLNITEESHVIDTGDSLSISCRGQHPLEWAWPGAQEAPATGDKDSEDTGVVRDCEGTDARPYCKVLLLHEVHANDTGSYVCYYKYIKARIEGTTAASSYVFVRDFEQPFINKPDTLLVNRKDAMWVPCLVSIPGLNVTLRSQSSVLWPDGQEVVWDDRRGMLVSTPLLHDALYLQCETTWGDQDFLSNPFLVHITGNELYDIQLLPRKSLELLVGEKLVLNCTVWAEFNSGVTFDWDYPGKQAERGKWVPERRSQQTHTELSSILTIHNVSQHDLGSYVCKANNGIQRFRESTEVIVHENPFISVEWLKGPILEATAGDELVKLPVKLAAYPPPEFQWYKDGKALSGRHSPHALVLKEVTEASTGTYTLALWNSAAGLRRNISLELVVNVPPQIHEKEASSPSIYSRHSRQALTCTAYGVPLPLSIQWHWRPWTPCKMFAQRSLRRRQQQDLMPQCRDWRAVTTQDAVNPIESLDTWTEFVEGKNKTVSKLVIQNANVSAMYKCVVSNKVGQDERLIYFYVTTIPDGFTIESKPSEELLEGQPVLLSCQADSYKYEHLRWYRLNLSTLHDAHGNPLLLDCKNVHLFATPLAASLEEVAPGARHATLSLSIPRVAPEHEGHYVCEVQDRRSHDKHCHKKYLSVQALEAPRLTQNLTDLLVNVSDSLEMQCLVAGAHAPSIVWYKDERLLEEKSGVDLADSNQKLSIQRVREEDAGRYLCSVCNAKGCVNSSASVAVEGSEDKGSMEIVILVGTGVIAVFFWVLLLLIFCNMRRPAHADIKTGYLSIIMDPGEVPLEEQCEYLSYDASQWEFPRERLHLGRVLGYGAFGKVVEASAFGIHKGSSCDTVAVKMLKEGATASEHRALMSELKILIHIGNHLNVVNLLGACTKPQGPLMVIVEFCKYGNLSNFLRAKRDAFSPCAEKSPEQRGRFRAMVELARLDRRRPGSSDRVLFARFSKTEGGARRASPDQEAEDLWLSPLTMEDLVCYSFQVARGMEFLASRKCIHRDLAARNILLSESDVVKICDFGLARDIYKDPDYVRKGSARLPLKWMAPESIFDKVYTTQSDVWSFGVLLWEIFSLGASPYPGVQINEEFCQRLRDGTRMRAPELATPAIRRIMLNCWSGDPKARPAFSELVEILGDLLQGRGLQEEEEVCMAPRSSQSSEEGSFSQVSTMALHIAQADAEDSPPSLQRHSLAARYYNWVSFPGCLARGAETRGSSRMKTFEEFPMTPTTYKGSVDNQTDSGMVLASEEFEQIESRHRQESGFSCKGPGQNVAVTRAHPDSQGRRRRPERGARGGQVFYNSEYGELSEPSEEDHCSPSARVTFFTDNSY
Description: Adult human dermal lymphatic microvascular endothelial cells (HMVEC-dLyAD) (Cat#CC-2810, Lonza) were seeded into clear-bottom, TC treated 12 well plates (Cat #665180, Greiner Bio-One) in EGM-2MV (Cat#CC-3202, Lonza) at 180,000 cells/well (volume 1 mL), and the plates incubated at 37° C. and 5% CO2 for 6 hours. The media was replaced with EBM-2 (Cat #CC-3156, Lonza)+0.1% BSA (Cat#A8412, Sigma) and cells incubated for a further period (overnight at 37° C. and 5% CO2).
96 well Maxisorp immuno plates (Cat #439454, Nunc) were coated with 100 μL of Total VEGFR3 capture antibody (Part #841888, Human Total VEGFR3/FLT4 ELISA Kit, Cat #DYC3491, R&D Systems), or Phospho VEGFR3 Capture antibody (Part #841885, Human Phospho VEGFR3/FLT4 ELISA Kit, Cat#DYC2724, R&D Systems). The plates were covered and incubated at room temperature overnight.
The coating antibody was flicked out and the plates washed three times with Wash Buffer (Phosphate buffered saline (137 mM NaCl, […], […], […], pH 7.2-7.4), 0.05% Tween 20). 300 μL of blocking buffer (5% v/v Tween 20, 5% w/v sucrose in PBS) was then added to wells and plate incubated for 2 hours at room temperature. Blocking solution is flicked out and plates washed three times and tapped dry.
Compound dilution series were prepared in EBM-2 (Cat #CC-3156, Lonza)+0.1% BSA (Cat#A8412, Sigma) with constant 0.1% DMSO concentration. 439 μL of sample or vehicle control was added to the cell monolayers. Cells are treated for 1 hour at 37° C. and 5% CO2. 250 ng/mL Recombinant human VEGFC (Cat #2179-VC, R & D Systems) added to wells and plates incubated for an additional 10 minutes at 37° C. and 5% CO2.
The media and compounds were removed and the cell monolayer washed once in Dulbecco's Phosphate Buffered Saline (Cat #21600-044, Invitrogen). 130 μL of Lysis buffer added to wells and cell lysate harvested and transferred to tubes and stored on ice. Complete lysis buffer was prepared by adding 10 μL Protease Inhibitor Cocktail (Cat #P8340, Sigma-Aldrich), 10 μL PMSF (Phenylmethanesulfonyl fluoride, Cat #P7626, Sigma-Aldrich, prepared as 500 mM DMSO stock) per 1 mL of Phosphosafe™ Extraction Reagent (Cat #71296, Merck).
The harvested samples were then diluted 1:2 in IC Diluent #18 (5% Tween 20/PBS) and 100 μL transferred to the Total and Phospho VEGFR3 coated, blocked and washed 96 well plates and incubated for 2 hours at room temperature. The plates were then washed three times in wash buffer as described above and tapped dry.
For detection of Total VEGFR3100 μL of Detection antibody (Total VEGFR3 Detection Antibody Part#841888 in Total VEGFR3 kit) diluted in IC Diluent #1 (1% w/v BSA (Cat #A7906, Sigma-Aldrich)/PBS) was added to wells and the plate incubated for 2 hours at room temperature. The plate was then washed three times in wash buffer and tapped dry. 100 μL of streptavidin-HPR diluted in IC diluent #1 Streptavidin-HRP, Part #890803 in Total VEGFR3 kit) was added to wells and incubated at room temperature for 20 minutes followed by washing as described above 100 μL Substrate solution (3,3′,5,5′-Tetramethylbenzidine (TMB) Liquid Substrate System for ELISA, Cat #T0440, Sigma-Aldrich) was added and the plate incubated for 20 minutes in the dark at room temperature followed by the addition of 50 μL stop solution (2 M H2SO4).
Total VEGFR3 levels were quantified using a Multiskan Ascent plate reader and Ascent software fitted with 450 nm filter.
For detection of Phospho VEGFR3, 100 μL of Detection antibody (Anti-Phospho-Tyrosine-HRP Detection Antibody, Part #841403 in Phospho VEGFR3 kit) was diluted in IC Diluent #1 (1% w/v BSA/PBS), added to the wells and the plate incubated for 2 hours at room temperature. The plate was then washed three times in wash buffer as described above and tapped dry. […]

P397Y-FAK = target: T3, P397Y-FAK (Homo sapiens, UniProt Q05397); test: P397Y-FAK inhibition MSD platform cellular biomarker assay; format: cell-based; settings: MDA-231-LNA cells, 1 hour compound
T3 construct: endogenous in cells; host or cells: MDA-231-LNA
T3 sequence (Q05397 2-1052 limits assumed, stated change not applied): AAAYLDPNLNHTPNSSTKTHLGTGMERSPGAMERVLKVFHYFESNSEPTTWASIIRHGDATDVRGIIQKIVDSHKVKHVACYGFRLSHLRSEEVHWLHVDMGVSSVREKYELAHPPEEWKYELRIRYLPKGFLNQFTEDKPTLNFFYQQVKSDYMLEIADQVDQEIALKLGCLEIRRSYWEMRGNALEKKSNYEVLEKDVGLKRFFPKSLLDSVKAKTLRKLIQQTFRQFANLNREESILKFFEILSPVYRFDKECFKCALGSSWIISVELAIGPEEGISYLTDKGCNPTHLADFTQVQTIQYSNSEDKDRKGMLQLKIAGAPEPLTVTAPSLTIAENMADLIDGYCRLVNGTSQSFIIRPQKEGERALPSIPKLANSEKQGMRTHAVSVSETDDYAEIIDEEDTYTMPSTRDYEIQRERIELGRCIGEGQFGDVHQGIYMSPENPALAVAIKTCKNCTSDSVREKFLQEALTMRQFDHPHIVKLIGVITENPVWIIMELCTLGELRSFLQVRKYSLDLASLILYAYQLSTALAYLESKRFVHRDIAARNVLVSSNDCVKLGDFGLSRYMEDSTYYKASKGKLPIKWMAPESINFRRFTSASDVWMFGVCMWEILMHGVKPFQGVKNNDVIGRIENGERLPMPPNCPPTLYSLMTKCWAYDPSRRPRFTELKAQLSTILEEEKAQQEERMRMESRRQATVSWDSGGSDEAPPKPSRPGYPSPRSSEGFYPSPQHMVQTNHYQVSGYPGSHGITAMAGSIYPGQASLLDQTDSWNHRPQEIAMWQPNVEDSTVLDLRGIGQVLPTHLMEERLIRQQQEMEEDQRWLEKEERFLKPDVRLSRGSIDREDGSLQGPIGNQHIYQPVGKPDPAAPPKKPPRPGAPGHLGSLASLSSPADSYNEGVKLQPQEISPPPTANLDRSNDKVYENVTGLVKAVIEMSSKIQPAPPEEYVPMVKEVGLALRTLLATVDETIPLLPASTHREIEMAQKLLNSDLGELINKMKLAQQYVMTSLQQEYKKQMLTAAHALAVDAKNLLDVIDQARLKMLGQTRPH
Description: 96-well plates (cat#MA6000, Meso Scale Discovery) are coated with 30 μL/well of mouse monoclonal FAK antibody [63D5] (cat#ab72140, Abcam) pre-diluted in PBS to a concentration of 1 mg/mL. The plates are sealed with adhesive film and incubated for 16 hours at 4° C. The antibody is then flicked out of the plates and 150 μL of 3% [w/v] Blocker A (cat#R93AA-1, Meso Scale Discovery) is added. The plates are resealed with adhesive film and incubated at room temperature on a shaker set at medium speed for 2 hours. The plates are then washed three times with a solution containing 50 mM Tris-HCl pH 7.5, 0.15 M NaCl and 0.02% Tween-20, before cell lysate addition described below.
Cells are split 1:2 into T150 cell culture flasks 2 days prior to compound treatment. On the day prior to compound treatment, 200 μL media containing 20,000 cells is seeded into all wells of white, clear-bottom, TC treated, pclear, 96-well microtitre plates (cat#655098, Greiner Bio-One), and the plates are incubated at 37° C. and 5% CO2 for […]. 1 pUwell of compound is then added from dilution series prepared in DMSO. Negative control wells receive the same volume of DMSO without compounds, and positive control wells receive 2 μM of a control compound in the same volume of DMSO. Cells are treated for 1 hour at 37° C. and 5% CO2. The media/compounds are then flicked off and 55 pUwell of ice-cold complete lysis buffer is added. Complete lysis buffer is prepared by adding 1 tablet PhosSTOP complete phosphatase inhibitor (cat#04906837001, Roche) and 1 tablet Complete, Mini, EDTA-free, protease inhibitor (cat#04693159001, Roche) per 10 mL of incomplete lysis buffer (150 mM NaCl, 20 mM Tris-HCl pH 7.5, 1 mM EDTA, 1 mM EGTA, 1% Triton-X 100). Plates are incubated on ice for 30 minutes, with 30 seconds high speed plate shaking every 5 minutes. 40 μL/well of cell lysate is transferred to the coated, blocked and washed 96-well microtitre plates described above. The 96-well plates are sealed with adhesive film and incubated for 16 hours at 4° C. The plates are then washed three times with a solution containing 50 mM Tris-HCl pH 7.5, 0.15 M NaCl and 0.02% Tween-20 and tapped dry. 25 μL/well of detection solution (1% [w/v] Blocker A (cat#R93AA-1, Meso Scale Discovery) in 50 mM Tris-HCl pH 7.5, 0.15 M NaCl and 0.02% Tween-20, with 1:600 rabbit polyclonal FAK phospho Y397 antibody (cat#ab39967, Abcam), 1:1000 anti-rabbit sulfo-tag antibody (cat#R32AB-1 Meso Scale Discovery) and 1:40 reconstituted Blocker D-M (cat#D609-0100, Rockland Immunochemicals for Research)) is added, and the plates resealed with adhesive film and incubated for 1 hour at room temperature on a plate shaker set to medium speed. Plates are then washed three times with a solution containing 50 mM Tris-HCl pH 7.5, 0.15 M NaCl and 0.02% Tween-20 and tapped dry. 150 μL/well of Read Buffer T+Surfactant (cat#R92TC-1, Meso Scale Discovery) is then added, and pFAK-397 levels quantified using a Meso Scale Discovery SECTOR Imager 6000 instrument.

T1 sequence (P35916 798-1298 isoform P35916-1): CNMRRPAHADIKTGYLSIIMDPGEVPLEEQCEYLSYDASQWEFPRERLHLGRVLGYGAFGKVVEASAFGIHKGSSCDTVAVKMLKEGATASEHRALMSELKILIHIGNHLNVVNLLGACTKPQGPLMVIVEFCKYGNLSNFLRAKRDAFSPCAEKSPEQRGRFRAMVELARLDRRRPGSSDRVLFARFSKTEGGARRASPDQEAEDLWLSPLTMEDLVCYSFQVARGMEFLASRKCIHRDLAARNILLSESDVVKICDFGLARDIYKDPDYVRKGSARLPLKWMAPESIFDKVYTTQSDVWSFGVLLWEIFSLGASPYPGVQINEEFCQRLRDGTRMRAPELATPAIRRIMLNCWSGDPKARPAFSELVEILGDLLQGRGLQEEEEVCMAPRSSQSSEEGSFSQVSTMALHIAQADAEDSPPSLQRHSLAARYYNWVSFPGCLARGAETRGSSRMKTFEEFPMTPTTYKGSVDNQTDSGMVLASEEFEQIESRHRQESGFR

Compound	IC50 [1] [nM]	IC50 (VEGFR3) [nM]	IC50 (P397Y-FAK) [nM]
NC(=O)Cc1cc(F)ccc1CCc1nc(Nc2ccc(C3CCNCC3)cc2)ncc1C(F)(F)F [Compound 9, 2-(5-fluoro-2-(2-(2-((4-(piperidin-4-yl)phenyl)amino)-5-(trifluoromethyl)pyrimidin-4-yl)ethyl)phenyl)acetamide]	68	379	–
NC(=O)Cc1ccccc1CCc1nc(Nc2ccc(C3CCNCC3)nc2)ncc1C(F)(F)F [Compound 13, 2-(2-(2-(2-((6-(piperidin-4-yl)pyridin-3-yl)amino)-5-(trifluoromethyl)pyrimidin-4-yl)ethyl)phenyl)acetamide]	67	1030	–
NC(=O)Cc1ccccc1CCc1nc(Nc2ccc(CNCCO)cc2)ncc1C(F)(F)F [Compound 19, 2-(2-(2-(2-((4-(((2-hydroxyethyl)amino)methyl)phenyl)amino)-5-(trifluoromethyl)pyrimidin-4-yl)ethyl)phenyl)acetamide]	70	–	7
Cc1ccc(CC(N)=O)c(CCc2nc(Nc3ccc(C4CCNCC4)cc3)ncc2C(F)(F)F)c1 [Compound 21, 2-(4-methyl-2-(2-(2-((4-(piperidin-4-yl)phenyl)amino)-5-(trifluoromethyl)pyrimidin-4-yl)ethyl)phenyl)acetamide]	44	–	119
NC(=O)Cc1c(CCc2nc(Nc3ccc(C4CCNCC4)cc3)ncc2C(F)(F)F)cccc1C(F)(F)F [Compound 22, 2-(2-(2-(2-((4-(piperidin-4-yl)phenyl)amino)-5-(trifluoromethyl)pyrimidin-4-yl)ethyl)-6-(trifluoromethyl)phenyl)acetamide]	101	–	944
